In patent US10221152B2 (priority 2013, dated 2019):
≈ marks a conversion by molar mass, not a printed value. Structures can show the parent of a compound that is named as a salt. Where two headings read alike, the source gives them in different places.

Columns and labels:
[1] = test system: influenza virus (H3N2); assay: organism not typed; format: cell-based, Influenza A virus; conditions: for EC50: read-out: H3N2 EC50
[2] = test system: Influenza A/WSN/33 (H1N1); assay: microbe, parasite or virus in culture; format: cell-based, Influenza A virus; conditions: for EC50: read-out: H1N1 WSN EC50
[3] = test system: MDCK cells
[4] = test system: influenza virus (H1N1); assay: organism not typed; format: cell-based, Influenza A virus
[5] = test system: H1N1 WSN viral strain; set-up: species or system BALB/c mice; conditions: mouse, in vivo, po

With `COc1c(C)c2c(c(O)c1C/C=C(\C)CCC(=O)OCCN1CCOCC1)C(=O)OC2` [MPM, 2-morpholinoethyl(E)-6-(1,3-dihydro-4-hydroxy-6-methoxy-7-methyl-3-oxo-5-isobenzofuranyl)-4-methyl-4-hexenoate] the EC50 [1] was 1.56 µg/mL (≈ 3.6 µM), the MIC ([1]; read-out: Minimal Inhibitory Concentration (MIC), H3N2) was 1.56 µg/mL (≈ 3.6 µM) and the “antiviral activity against WSN influenza virus” value [2] was “active”. For the same compound, the “cell survival (MTT), D + V” value [2] was “++++ (key: 0˜25% cell survival is recorded as +/−; 25˜50% cell survival is recorded as +; 50˜75% cell survival is recorded as ++; 75˜100% cell survival is recorded as +++; >100% cell survival is recorded as ++++)”, the EC50 ([2]; Influenza A virus) was 0.098 µg/mL (≈ 0.226 µM) and the MIC ([2]; Influenza A virus, read-out: Minimal Inhibitory Concentration (MIC), WSN) was 0.097 µg/mL (≈ 0.224 µM). The toxicity to cells [3] was “nontoxic to cells”, the “survival rate in MDCK cells” value [4] was 75% and the MIC ([4]; read-out: Minimal Inhibitory Concentration (MIC), H1N1) was 0.195 µg/mL (≈ 0.45 µM).

For `COc1c(C)c2c(c(O)c1C/C=C(\C)CCC(=O)OCCN1CCOCC1)C(=O)OC2` [MPM-N, mycophenolate mofetil hydrochloride], the “survival rate of mice” value [5] was 23.3% and the “Minimal Inhibitory Concentration (MIC), WSN” value ([2]; hydrochloride) was 0.0488 µg/mL.

With `NC(=O)c1ncn([C@@H]2O[C@H](CO)[C@@H](O)[C@H]2O)n1` [Ribavirin, reference compound] the EC50 [1] was 12.5 µg/mL (≈ 51.2 µM) and the EC50 ([2]; Influenza A virus) was 3.12 µg/mL (≈ 12.8 µM).

For `CCOC(=O)C1=C[C@@H](OC(CC)CC)[C@H](NC(C)=O)[C@@H](N)C1` [Tamiflu], the “survival rate of mice” value [5] was 100% and the “survival rate of mice” value ([5]; 0.1 mg/kg) was 46.7%.
